Here are results for one compound from patent publication US20240327433A1, “PYRIMIDOPYRAN COMPOUND” (Medshine Discovery Inc., priority 2021, published 2024).

Structures can show the parent of a compound that is named as a salt.

One series concerns p-ERK in AGS cells. The series can be described thus: Assay of p-ERK inhibition in AGS cells (HTRF). Format: cell-based. Conditions: Homo sapiens, 3 hours incubation. On the procedure: • 1) AGS cells were inoculated in a transparent 96-well cell culture plate, and each well contained […] of cell suspension and 10000 cells. The cell plate was inoculated in a carbon dioxide incubator at 37° C. overnight; • 2) After completion of the incubation, the cell supernatant was discarded. 80 μL of medium containing 0.02% serum was added to each well. The cell plate was incubated in a carbon dioxide incubator at 37° C. overnight; • 3) 2 μL of the compound was weighed and added to 78 μL of the cell medium. After the mixture was mixed thoroughly, 20 μL of the solution of compound was weighed and added to the corresponding well of the cell plate. The cell plate was placed back to the carbon dioxide incubator and incubated for another 3 hours; • 4) After completion of the incubation, the cell supernatant was discarded. 50 μL of 1× cell lysate was added to each well. […] The mixture was incubated at room temperature for at least 4 hours; • 7) After completion of the incubation, HTRF was read with multi-label analyzer: excitation: 320 nm, emission: 615 nm, 665 nm; • 8). IC50 of the compound to be assayed was calculated.
A general note: Time-resolved FRET reads energy transfer from a long-lived donor to a nearby acceptor.

Series [1] can be described thus: Pharmacokinetic study of oral and intravenously injected compounds in CD-1 mouse. Format: in vivo. On the procedure:
To assay the pharmacokinetics of oral and intravenously injected compounds in CD-1 mouse. The assay compound was mixed with 5% DMSO+95% (10% HP-β-CD) aqueous solution. The mixture was vortexed and sonicated to prepare a clear solution of 0.5 mg/mL (intravenous) or a clear solution of 3 mg/mL (oral). The clear solution was filtered by a microporous membrane for use. […] Whole blood was collected for a certain period of time, and prepared to obtain plasma. Drug concentration was analyzed by LC-MS/MS method, and pharmacokinetic parameters were calculated by Phoenix WinNonlin software (Pharsight, USA).

Series [2] in a line: Plasma protein binding (PPB), equilibrium dialysis, cynomolgus monkey plasma. It counts as in vitro ADME. Conditions: 2 μM, unbound rate. The protocol: The protein binding rates of the compound in the plasma of CD-1 mouse, Sprague-Dawley rat, Beagle dog, cynomolgus monkey and human were determined by equilibrium dialysis method.
The plasmas of the above-mentioned five species were formulated to plasma samples with a compound concentration of 2 μM. The plasma samples were placed in a 96-well rapid equilibrium dialysis device, and dialyzed against phosphate buffered saline at 37±1° C. for 4 h. In this assay, warfarin was used as a control compound. The concentrations of analytes in plasma and dialysis buffer were determined by LC-MS/MS mothed.

The mark [3] stands for this setting: male, CD-1, plasma, intravenous (IV), about 2 mg/kg.
The mark [4] stands for this setting: male, CD-1, plasma, oral (PO), about 30 mg/kg.

Consider `Cc1cc(N)c(F)c(C2Cc3nc(OC[C@@]45CCCN4C[C@H](F)C5)nc(N4CC5CCC(C4)N5)c3CO2)c1C(F)(F)F` (stereo partly shown) [Compound 1 hydrochloride], for which the midpoint of inhibition with p-ERK in AGS cells, the IC50, lay at 45 nM. In series [1] (setting [3]), this compound yielded an area under the curve AUC(0-t) of 0.353 µM·h, a C0 of 1400 nM, a Vd of 148 L/kg and a clearance of 106 mL/min/kg. In series [1] (setting [3]), the half-life was 23.1 h. For the same compound, in series [1] (setting [4]), the AUC(0-inf) is 1.35 µM·h and the peak level (Cmax) was 228 nM. In series [1] (oral (PO), about 30 mg/kg, oral bioavailability), this compound registered an F of 25.5%. Moreover, the “Unbound PPB C” value in series [2] is recorded as 6.3%.

The IC50 is the concentration at which inhibition is half-maximal. Broadly, the AUC(0-t) is exposure summed from dosing to a finite time, without extrapolation to infinity. By half-life is commonly meant the time needed for the level to fall by half in the phase considered. The AUC(0-inf) is total exposure, with the tail of the curve extrapolated. The term Cmax denotes the peak of the concentration-time curve.
